One data set has as its system MRSA (ATCC 43300). In words: Intrinsic antimicrobial activity (MIC) against MRSA. In kind it is cell-based. The settings on record: Staphylococcus aureus, MRSA ATCC 43300; mean (n = 2); read-out: MIC MRSA. In a few lines: (§1)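 Susceptibility testing: bacteria per earlier published methods; fungi per CO-ADD standard protocols (University of Queensland).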
Data set [1] has as its system Acinetobacter baumannii (ATCC 19606). In words: Intrinsic antimicrobial activity (MIC) against A. baumannii. It counts as cell-based. Here is the method:
(§2) The susceptibility of bacterial strains Staphylococcus aureus (ATCC 25923), Escherichia coli (ATCC 25922) and Pseudomonas aeruginosa (ATCC 27853) to antibiotics and compounds was determined using previously reported protocols. Additional antimicrobial evaluation against MRSA (ATCC 43300), Klebsiella pneumoniae (ATCC 700603), Acinetobacter baumannii (ATCC 19606), Candida albicans (ATCC 90028) and Cryptococcus neoformans (ATCC 208821) was undertaken at the Community for Open Antimicrobial Drug Discovery at The University of Queensland (Australia) according to their standard protocols, as reported previously.

A short description of a further data set: Cytotoxicity assay. In kind it is cell-based. The settings on record: human; HEK293 cells; mean (n = 2); read-out: Cytotoxicity: concentration of compound at 50% cytotoxicity (IC50). The method, then:
Cytotoxicity assays were conducted using the protocols previously reported.

The test system of a further data set is E. coli ATCC 25922. In words: Enhancement of erythromycin action against E. coli. The note with it: erythromycin at 10.9 µM. It counts as cell-based, Escherichia coli. The method, then:
(§3) Antibiotic enhancer concentrations were determined using previously reported protocols.

The test system of another data set is human red blood cells. In words: Hemolytic assay. It counts as cell-based. The note with it: mean (n = 2). Here is the method: Hemolysis assays were conducted using the protocols previously reported.
For data set [2], the system named is Pseudomonas aeruginosa (ATCC 27853). In words: Intrinsic antimicrobial activity (MIC) against P. aeruginosa. In kind it is cell-based. An outline of the steps:
as §1

Data set [3] has as its system Staphylococcus aureus (ATCC 25923). In words: Intrinsic antimicrobial activity (MIC) against S. aureus. In kind it is cell-based. In a few lines: as §1
For data set [4], the system named is Candida albicans (ATCC 90028). In words: Intrinsic antifungal activity (MIC) against C. albicans. It counts as cell-based. In a few lines: (§4)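 For the two bacterial species, susceptibility to compounds and antibiotics follows a prior protocol. Both fungal species are assessed by the Queensland-based Community for Open Antimicrobial Drug Discovery using its standard procedures.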

Data set [5] relates to Cryptococcus neoformans (ATCC 208821). In words: Intrinsic antifungal activity (MIC) against C. neoformans. In kind it is cell-based. In a few lines:
as §4

A further data set has as its system P. aeruginosa ATCC 27853. In words: Enhancement of doxycycline action against P. aeruginosa. In kind it is cell-based, Pseudomonas aeruginosa. The settings on record: doxycycline at 4.5 µM. The method, then:
as §3

The subject of data set [6] is Escherichia coli (ATCC 25922). In words: Intrinsic antimicrobial activity (MIC) against E. coli. It counts as cell-based. In a few lines:
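Antibacterial MICs by established in-house protocol; yeast MICs run externally at CO-ADD, University of Queensland, per their standard screening protocols.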

Data set [7] relates to Klebsiella pneumoniae (ATCC 700603). In words: Intrinsic antimicrobial activity (MIC) against K. pneumoniae. It counts as cell-based. The method, then:
as §2

The mark [8] stands for this setting: ATCC19606, A. baumannii ATCC 19606, mean (n = 2), read-out: MIC A. b.
Where [9] appears, read: ATCC27853, P. aeruginosa ATCC 27853, mean (n = 3), read-out: MIC P. a.
Setting [10] is: ATCC25923, S. aureus ATCC 25923, mean (n = 3), read-out: MIC S. a.
The mark [11] stands for this setting: ATCC90028, C. albicans ATCC 90028, mean (n = 2), read-out: MIC C. a.
Setting [12] is: ATCC208821, C. neoformans ATCC 208821, mean (n = 2), read-out: MIC C. n.
Setting [13] is: ATCC25922, E. coli ATCC 25922, mean (n = 3), read-out: MIC E. c.
The mark [14] stands for this setting: ATCC700603, K. pneumoniae ATCC 700603, mean (n = 2), read-out: MIC K. p.

Like-named read-outs stand apart in the source and are kept apart here.

Usually MIC stands for the lowest concentration that inhibits growth of the organism. Consider `O=C(Cc1c[nH]c2ccccc12)NCCCNCCCCCCCNCCCNC(=O)Cc1c[nH]c2ccccc12.O=C(O)C(F)(F)F.O=C(O)C(F)(F)F` [Compound 14c, N^1,N^7-Bis(3-(2-(1H-indol-3-yl)acetamido)propyl)heptane-1,7-diaminium 2,2,2-trifluoroacetate], for which the MIC in the data set with MRSA (ATCC 43300) was no more than 0.32 µM; in data set [1] (setting [8]) it was greater than 41 µM; in data set [2] (setting [9]), greater than 254 µM; in data set [3] (setting [10]), 15.9 µM; in data set [4] (setting [11]), greater than 41 µM; in data set [5] (setting [12]), no more than 0.32 µM. The MIC was greater than 254 µM in [6] (setting [13]) and greater than 41 µM in [7] (setting [14]). In addition, in “Cytotoxicity assay”, the IC50 is greater than 41 µM. Further, the “Eryth/E. c: concentration required to restore erythromycin activity (combination MIC)” value (“Eryth/E. c: concentration required” below) in the data set on E. coli ATCC 25922 was greater than 254 µM. Besides, the “Hemolysis: concentration of compound at 10% hemolytic activity (HC10)” value (“Hemolysis … at 10% hemolytic activity (HC10)” below) in the data set on human red blood cells worked out at 0.72 µM. For the same compound, in the data set with P. aeruginosa ATCC 27853, the “Dox/P. a fold change (ratio between intrinsic MIC of the test compound and combination MIC)” value stood at 4 fold. Moreover, the “Dox/P. a: concentration required to restore doxycycline activity (combination MIC)” value (from here on “Dox/P. a: concentration required”) in the data set on P. aeruginosa ATCC 27853 came out at 63.5 µM.
Turning to `O=C(Cc1c[nH]c2ccccc12)NCCCNCCCCCCCCNCCCNC(=O)Cc1c[nH]c2ccccc12.O=C(O)C(F)(F)F.O=C(O)C(F)(F)F` [Compound 14d, N^1,N^8-Bis(3-(2-(1H-indol-3-yl)acetamido)propyl)octane-1,8-diaminium 2,2,2-trifluoroacetate], the minimal inhibitory concentration (MIC) in the data set with MRSA (ATCC 43300) was no more than 0.31 µM; in data set [1] (setting [8]) it was greater than 40 µM; in [2] (setting [9]), greater than 250 µM; in data set [3] (setting [10]) it was 31.2 µM; in [4] (setting [11]), greater than 40 µM; in data set [5] (setting [12]) it was no more than 0.31 µM. The minimal inhibitory concentration (MIC) was 62.4 µM in data set [6] (setting [13]) and greater than 40 µM in [7] (setting [14]). Also, in “Cytotoxicity assay”, the IC50 is greater than 40 µM. The “Eryth/E. c: concentration required” value in the data set with E. coli ATCC 25922 is 250 µM. For the same compound, the “Hemolysis … at 10% hemolytic activity (HC10)” value in the data set with human red blood cells is recorded as 15.8 µM. Moreover, the “Dox/P. a fold change (ratio between intrinsic MIC of the test compound and combination MIC)” value with P. aeruginosa ATCC 27853 is given as greater than 1 fold. Also, the “Dox/P. a: concentration required” value in the data set with P. aeruginosa ATCC 27853 is on record as 250 µM.
With `O=C(Cc1c[nH]c2ccccc12)NCCCNCCCCCCCCCCNCCCNC(=O)Cc1c[nH]c2ccccc12.O=C(O)C(F)(F)F.O=C(O)C(F)(F)F` [Compound 14e, N^1,N^10-Bis(3-(2-(1H-indol-3-yl)acetamido)propyl)decane-1,10-diaminium 2,2,2-trifluoroacetate], the MIC is no more than 0.3 µM with MRSA (ATCC 43300); greater than 39 µM in [1] (ATCC19606, read-out: MIC A. b); 60.3 µM in data set [2] (ATCC27853, read-out: MIC P. a); 3.77 µM in data set [3] (ATCC25923, read-out: MIC S. a); no more than 0.3 µM in data set [4] (ATCC90028, read-out: MIC C. a); no more than 0.3 µM in [5] (ATCC208821, read-out: MIC C. n). Also, the MIC in data set [6] (ATCC25922, read-out: MIC E. c) was 15.1 µM; in data set [7] (ATCC700603, read-out: MIC K. p), greater than 39 µM. The IC50 in the data set “Cytotoxicity assay” was greater than 39 µM. In addition, the “Eryth/E. c: concentration required” value with E. coli ATCC 25922 is 15.1 µM. The “Hemolysis … at 10% hemolytic activity (HC10)” value in the data set with human red blood cells is no more than 0.30 µM. Further, the “Dox/P. a fold change (ratio between intrinsic MIC of the test compound and combination MIC)” value in the data set with P. aeruginosa ATCC 27853 is given as 4 fold. Also, in the data set on P. aeruginosa ATCC 27853, the “Dox/P. a: concentration required” value was 15.1 µM.
In the case of `Cc1cccc2c(CC(=O)NCCCNCCCCCCCNCCCNC(=O)Cc3c[nH]c4c(C)cccc34)c[nH]c12.O=C(O)C(F)(F)F.O=C(O)C(F)(F)F` [Compound 20c, N^1,N^7-Bis(3-(2-(7-methyl-1H-indol-3-yl)acetamido)propyl)heptane-1,7-diaminium 2,2,2-trifluoroacetate], the MIC is less than 0.2 µM with MRSA (ATCC 43300); greater than 39 µM in data set [1] (setting [8]); greater than 245 µM in data set [2] (setting [9]); 3.83 µM in data set [3] (setting [10]); greater than 39 µM in [4] (setting [11]); less than 0.2 µM in data set [5] (setting [12]). The minimum inhibitory concentration (MIC) in data set [6] (setting [13]) is 245 µM; in [7] (setting [14]) it was greater than 39 µM. Moreover, the IC50 in the data set “Cytotoxicity assay” was greater than 39 µM. Further, the “Eryth/E. c: concentration required” value with E. coli ATCC 25922 was 123 µM. For the same compound, the “Dox/P. a fold change (ratio between intrinsic MIC of the test compound and combination MIC)” value with P. aeruginosa ATCC 27853 is recorded as greater than 2 fold. The “Dox/P. a: concentration required” value in the data set on P. aeruginosa ATCC 27853 worked out at 123 µM.
